Literature values, collected in US4197292A, “Novel amylase inhibitors” (Taisho Pharmaceutical Co., priority 1978, dated 1980).

Tested on: β-glucosidase
Details: prior art inhibitor

inhibitory activity to β-glucosidase (in words): has inhibitory activity
SMILES: OC[C@H]1NC(O)[C@H](O)[C@@H](O)[C@@H]1O (stereo partly shown) [Nojirimycin]
